Laboratory results reported in the NIST ThermoML archive (doi:10.1016/j.tca.2012.11.015).
Numbers after ± are expanded uncertainties.

Experiment: molar heat capacity at constant pressure
Conditions: 101.33 kPa, Crystal, Small sample (50 mg) DSC

[F][Lu]([F])[F] [lutetium(III) fluoride]
Conditions	molar heat capacity at constant pressure [J/K/mol]
399.7 K	96.75 ± 1.9
405.1 K	97.02 ± 1.9
410.5 K	95.88 ± 1.9
415.8 K	95.29 ± 1.9
421.1 K	96.94 ± 1.9
426.3 K	97.01 ± 1.9
431.5 K	96.43 ± 1.9
436.7 K	96.58 ± 1.9
441.9 K	96.64 ± 1.9
447.1 K	96.86 ± 1.9
452.2 K	96.8 ± 1.9
457.3 K	96.65 ± 1.9
462.5 K	95.51 ± 1.9
467.6 K	96.35 ± 1.9
472.6 K	96.98 ± 1.9
477.7 K	97.09 ± 1.9
482.8 K	97.11 ± 1.9
487.8 K	97.26 ± 1.9
492.9 K	97.48 ± 1.9
497.9 K	97.58 ± 1.9
502.9 K	97.68 ± 1.9
508 K	97.97 ± 2
513 K	98.13 ± 2
518 K	98.36 ± 2
523 K	98.49 ± 2
528 K	98.56 ± 2
533.1 K	98.68 ± 2
538.1 K	98.84 ± 2
543.1 K	98.87 ± 2
548.1 K	99.13 ± 2
553.1 K	99.24 ± 2
558.1 K	99.48 ± 2
563.1 K	99.09 ± 2
568.1 K	99.13 ± 2
573.1 K	99.33 ± 2
578.1 K	99.5 ± 2
583.1 K	99.58 ± 2
588 K	99.58 ± 2
593 K	99.6 ± 2
598 K	99.71 ± 2
603 K	99.98 ± 2
608 K	100.29 ± 2
613 K	100.45 ± 2
618 K	100.4 ± 2
623 K	100.24 ± 2
627.9 K	100.69 ± 2
632.9 K	101.13 ± 2
637.9 K	100.84 ± 2
642.9 K	101.01 ± 2
647.9 K	101.38 ± 2
652.9 K	101.53 ± 2
657.9 K	101.67 ± 2
662.8 K	101.64 ± 2
667.8 K	101.51 ± 2
672.8 K	101.61 ± 2
677.8 K	101.89 ± 2
682.8 K	102.02 ± 2
687.8 K	102.07 ± 2
692.8 K	102.12 ± 2
697.7 K	102.26 ± 2
702.7 K	102.44 ± 2
707.7 K	102.41 ± 2
712.7 K	102.81 ± 2.1
717.7 K	102.66 ± 2
722.7 K	102.97 ± 2.1
727.6 K	102.82 ± 2.1
732.6 K	104.53 ± 2.1
737.6 K	104.75 ± 2.1
742.6 K	104.55 ± 2.1
747.6 K	104.86 ± 2.1
752.6 K	105.12 ± 2.1
757.6 K	104.68 ± 2.1
762.6 K	103.97 ± 2.1
767.5 K	102.8 ± 2.1
772.5 K	103.35 ± 2.1
777.5 K	103.53 ± 2.1
782.5 K	103 ± 2.1
787.5 K	103.29 ± 2.1
792.5 K	103.69 ± 2.1
797.5 K	103.87 ± 2.1
802.4 K	103.76 ± 2.1
807.4 K	104.24 ± 2.1
812.4 K	103.94 ± 2.1
817.4 K	104.08 ± 2.1
822.4 K	104.49 ± 2.1
827.4 K	104.53 ± 2.1
832.4 K	104.46 ± 2.1
837.4 K	104.64 ± 2.1
842.3 K	104.66 ± 2.1
847.3 K	104.56 ± 2.1
852.3 K	104.93 ± 2.1
857.3 K	104.87 ± 2.1
862.3 K	104.94 ± 2.1
867.3 K	105.55 ± 2.1
872.3 K	105.31 ± 2.1
877.3 K	105.62 ± 2.1
882.2 K	105.71 ± 2.1
887.2 K	105.77 ± 2.1
892.2 K	105.39 ± 2.1
897.2 K	105.26 ± 2.1
902.2 K	105.24 ± 2.1
907.2 K	105.2 ± 2.1
912.2 K	105.01 ± 2.1
917.2 K	103.22 ± 2.1
922.2 K	101.86 ± 2
927.1 K	101.4 ± 2
932.1 K	101.32 ± 2
937.1 K	102.01 ± 2
942.1 K	103.86 ± 2.1
947.1 K	104.24 ± 2.1
952.1 K	104.41 ± 2.1
957.1 K	104.36 ± 2.1
962.1 K	105.18 ± 2.1
967.1 K	105.18 ± 2.1
972.1 K	104.61 ± 2.1
977 K	104.97 ± 2.1
982 K	105.26 ± 2.1
987 K	104.58 ± 2.1
992 K	104.27 ± 2.1
997 K	104.7 ± 2.1
1002 K	104.37 ± 2.1
1007 K	105.57 ± 2.1
1012 K	107.7 ± 2.1
1017 K	107.28 ± 2.1
1022 K	106.62 ± 2.1
1027 K	106.36 ± 2.1
1031.9 K	106.14 ± 2.1
1036.9 K	106.21 ± 2.1
1041.9 K	106.18 ± 2.1
1046.9 K	106.45 ± 2.1
1051.9 K	105.23 ± 2.1
1056.9 K	104.62 ± 2.1
1061.9 K	103.86 ± 2.1
1066.9 K	102.81 ± 2.1
1071.9 K	104.66 ± 2.1
1076.9 K	107.09 ± 2.1
1081.9 K	107.68 ± 2.1
1086.9 K	108.09 ± 2.2
1091.9 K	108.21 ± 2.2
1096.9 K	108.47 ± 2.2
1101.9 K	108.65 ± 2.2
1106.9 K	108.92 ± 2.2
1111.9 K	108.53 ± 2.2
1116.9 K	109.02 ± 2.2
1121.9 K	108.84 ± 2.2
1126.9 K	109.6 ± 2.2
1131.9 K	109.55 ± 2.2
1136.9 K	109.42 ± 2.2
1141.8 K	108.84 ± 2.2
1146.8 K	109.13 ± 2.2
1151.8 K	109.39 ± 2.2
1156.8 K	108.91 ± 2.2
1161.8 K	108.91 ± 2.2
1166.8 K	109.26 ± 2.2
1171.8 K	109.47 ± 2.2
1176.8 K	109.96 ± 2.2
1181.8 K	108.7 ± 2.2
1186.8 K	107.48 ± 2.1
1191.8 K	106.02 ± 2.1
1196.8 K	104.98 ± 2.1
1201.8 K	104.23 ± 2.1
1206.8 K	104.19 ± 2.1
1211.8 K	107.96 ± 2.2
